This note sets out measurements from patent US20240058344A1, “METHODS OF TREATING NEURODEGENERATIVE DISORDERS AND STAT3-LINKED CANCERS USING SUPPRESSORS OF ELECTRON LEAK” (Cornell University, priority 2020, published 2024).

The test system of one assay is primary astrocytes. Description: Intracellular ATP levels in primary astrocytes. The assay is classed as cell-based. The text has this:
Antimycin A and myxothiazol were used as positive controls to inhibit mitochondrial respiration and ATP production. n=3 wells per condition. ***p<0.001 vs. vehicle, mixed-effects model with Dunnett's multiple comparisons test.

In a further assay the test system is astrocytes. Description: Oxygen consumption rates (mitochondrial respiration) in astrocytes. The format is cell-based. The text has this: Oxygen consumption rates (OCR) and maximal consumption rates are shown for indicated S3QEL2 concentrations and time points. Antimycin and rotenone were used as positive controls to inhibit mitochondrial respiration. ***p<0.001 vs. vehicle, two-way repeated measures ANOVA with Dunnett's multiple comparisons test.

With `CO/C(=C/C(N)=O)[C@H](C)[C@H](/C=C/c1csc(-c2csc([C@@H](C)/C=C/C=C/C(C)C)n2)n1)OC` [myxothiazol], the “Intracellular ATP levels” value in the assay on primary astrocytes was “greatly reduce”.

As to `C=C(C)[C@H]1Cc2c(ccc3c2O[C@@H]2COc4cc(OC)c(OC)cc4[C@@H]2C3=O)O1` [rotenone], the “Mitochondrial respiration (oxygen consumption rates, OCR)” value in the assay on astrocytes was “greatly reduce”.

Take antimycin A: the “Intracellular ATP levels” value with primary astrocytes is “greatly reduce”. Besides, the “Mitochondrial respiration (oxygen consumption rates, OCR)” value in the assay with astrocytes is “greatly reduce”.
